Experimental data reported in US20130317055A1, “NEURONAL NICOTINIC AGONIST AND METHODS OF USE” (ABBVIE INC., priority 2012, published 2013).

What was measured:
Type in all cases: in vivo, human
[1] = test system: clinically stable subjects with schizophrenia; test: Clinical Study A: UCSD Performance-Based Skills Assessment-2 (UPSA-2); conditions: for UPSA-2 Total Score: Difference from Placebo LS Mean (SE) of Difference / UPSA-2 Total Score: LS Mean (SE) of Change: Baseline to Final Evaluation, ANCOVA; for UPSA-2 Total Score: Observed Mean (SD) Final: Final Evaluation
Source text: (§1) A Phase 2a proof-of-concept (POC) study in clinically stable subjects with schizophrenia who were clinically stable and received stable doses of atypical antipsychotic therapy. The study was a Phase 2, multi-center, randomized, double-blind, placebo-controlled, parallel group study designed to evaluate the safety and efficacy of doses of (4s)-4-(5-phenyl-1,3,4-thiadiazol-2-yloxy)-1-azatricyclo[3.3.1.1^3,7]decane (Compound A) in clinically stable male and female subjects (ages 20 to 55, inclusive) with a Diagnostic and Statistical Manual of Mental Disorders Fourth Edition, Text Revision (DSM-IV-TR) diagnosis of schizophrenia. Psychiatric diagnoses were confirmed using the Mini-International Neuropsychiatric Interview (MINI) version 6.0.0. The criteria for clinical stability was determined by a combination of retrospective data (over the 4 months prior to the start of Screening, which will be supported by clinical records, patient, identified responsible contact person, and physician interviews), and prospective data assessed during the Prospective Stabilization Period of 28 to 42 days duration.
(§2) The study was a Phase 2, multi-center, randomized, double-blind, placebo-controlled, parallel group study designed to evaluate the safety and efficacy of doses of (4s)-4-(5-phenyl-1,3,4-thiadiazol-2-yloxy)-1-azatrieyclo[3.3.1.1^3,7]decane, which is also recognized as Compound A, in treating cognitive deficits in subjects with schizophrenia who were clinically stable and receiving one or two atypical antipsychotic medications. Study drug was administered orally.
(§3) The study consisted of a screening period of at least 28 and up to 42 days, a 84-day outpatient treatment period, a 14-day post-treatment period, and a post-treatment follow-up period. The screening period consisted of three visits: Screening Visit 1, Screening Visit 2, and Day −1. Upon completion of Day −1 procedures, eligible subjects were randomized through an Interactive Voice Response/Interactive Web-Based (IVR/IWB) system. Subjects were randomized in an equal ratio to one of three treatment groups (placebo, 10 mg Compound A, or 25 mg Compound A).
(§4) Subjects were randomized in a 1:1:1 ratio with placebo, 10 mg QD Compound A, of 25 mg Compound A. Each subject was instructed to take study drug once-daily in the morning for 12 weeks. Each daily dose was preferably taken with food. The subject and investigator were blinded to the treatment assignment throughout the study. The treatment assignments for the study subjects are shown below in Table 1.
(§5) The primary endpoint was the MCCB composite score, and the primary endpoint analysis was the change on the MCCB composite score from baseline to endpoint versus placebo. Other secondary measures included the MCCB domains, the NSA-16, the CANTAB cognition battery (measured at different time points from the MCCB), and the UPSA-2. The Positive and Negative Syndrome Scale (PANSS) was included to document stability in schizophrenia symptomatology.
The UCSD Performance-Based Skills Assesstnent-2 (UPSA-2) is a role-play test designed for subjects with schizophrenia to evaluate cognitive functional capacity in six selected domains of basic living skills. These areas include Organization/Planning Financial Skills, Communication, Transportation, Household Management, and Medication Management. […] Scores were obtained for each subtest, and the total score was the sum of these subtests. […] The UPSA-2 required an average of 30 minutes to administer. The UPSA-2 was administered in on Days 14, 28, 56, 84 and 98.

[2] = test system: clinically stable subjects with schizophrenia; test: Clinical Study A: CANTAB cognition battery; conditions: 10 mg and 25 mg
Source text: as §1, with “Psychiatric diagnoses were confirmed using the Mini-International Neuropsychiatric Interview (MINI) version 6.0.0.” left out, “duration. […]” for “duration.”
as §5, with “The Positive and Negative Syndrome Scale (PANSS) was included to document stability in schizophrenia symptomatology.” left out

[3] = test system: clinically stable subjects with schizophrenia; test: Clinical Study A (Phase 2a, placebo-controlled): MATRICS Consensus Cognitive Battery (MCCB); conditions: Phase 2a study; printed indication AD
[4] = test system: clinically stable subjects with schizophrenia; test: Clinical Study A: disposition of subjects, discontinuations and tolerability
Source text: as §1, §2, §3, §4
Subjects completed 2 visits during the screening period. Study site personnel contacted each subject by telephone on Day 21, 35, and 70 of the 84-day treatment period to discuss study drug compliance, antipsychotic medication compliance, concomitant medication use, substance use, and any adverse events.
A total of 207 subjects were randomized.

SMILES: c1ccc(-c2nnc(O[C@@H]3C4CC5C[C@H]3C[N@](C5)C4)s2)cc1 [Compound A, (4s)-4-(5-phenyl-1,3,4-thiadiazol-2-yloxy)-1-azatricyclo[3.3.1.1^3,7]decane]
- UPSA-2 Total Score: Difference from Placebo LS Mean (SE) of Difference ([1]; 10 mg QD): 0.51 (2.15)
- UPSA-2 Total Score: LS Mean (SE) of Change ([1]; 10 mg QD): 2.78 (1.52)
- UPSA-2 Total Score: Observed Mean (SD) Final ([1]; 10 mg QD): 87.98 (20.36)
- UPSA-2 Total Score: Difference from Placebo LS Mean (SE) of Difference ([1]; 25 mg QD): 0.63 (2.34)
- UPSA-2 Total Score: LS Mean (SE) of Change ([1]; 25 mg QD): 2.89 (1.70)
- UPSA-2 Total Score: Observed Mean (SD) Final ([1]; 25 mg QD): 94.29 (15.85)
- UPSA-2 composite score: significance versus placebo ([1]; either dose group (10 mg, 25 mg)): No significance
- CANTAB battery results relative to MCCB results [2]: consistent
- Signal for efficacy in symptomatic treatment [3]: demonstrated a signal for efficacy
- Discontinuation, primary reason Adverse event, % of treated subjects ([4]; 10 mg QD): (5.8) %
- Discontinuation, primary reason Adverse event, % of treated subjects ([4]; 25 mg QD): (4.5) %
- Discontinuation, primary reason Adverse event, % of treated subjects ([4]; Compound A Overall): (5.1) %
- Tolerability ([4]; human patients with schizophrenia, summary statement): generally well tolerated
- Tolerability ([4]; subjects with schizophrenia, doses up to 25 mg QD, including 10 mg QD and 25 mg QD): well tolerated
